We go through 42 compounds from patent publication US6136781A, “LH-RH receptor antagonists” (Takeda Chemical Industries, Ltd., priority 1995, dated 2000).

The conditions of the data set: amide bond, DMF.
The mark [1] stands for this setting: 15-membered ring, DIEA (active ester), 0.88 mM, 4 steps.
Setting [2] is: 15-membered ring, ONB active ester/DIEA, 1.06 mM, 5 steps.

Read-outs that look alike come from different tables or passages of the source.

In the case of cyclo(-Arg-D-Glu(Php)-Tyr-D-Trp-Leu-), under setting [1], the ring closure, yield after HPLC was 71.7%.

In the case of cyclo(-Arg-D-Lys(CoPh)-Tyr-D-Trp-Leu-), the ring closure, yield after HPLC (15-membered ring, ONB active ester/DIEA, 2.62 mM, 5 steps) stood at 32.7%. Where the note is “15-membered ring, DIEA (active ester), 2.67 mM, 5 steps”, “cyclo(-Arg-D-Glu(NHCH2 CH2 Ph)-Asp (NHCH2 Ph)-D-Trp-Leu-)” displayed a ring closure, yield after HPLC of 6.72%.

`Cc1ccc(S(=O)(=O)NC(=N)NCCC[C@H]2NC(=O)[C@H](C)NC(=O)[C@H](Cc3c[nH]c4ccccc34)NC(=O)[C@@H](C)NC(=O)[C@H](Cc3ccccc3)NC2=O)cc1` [cyclo(-Ala-D-Arg(Tos)-Phe-D-Ala-Trp-)] registered a ring closure, yield after HPLC (from H-Trp-Ala-dArg(Tos)-Phe-dAla-OH, 15-membered ring, PyBOP/DIEA, 25.0 °C, 2 steps) of 21.8%. Compound “cyclo(-Arg-D-Glu(NHCH2 Ph)-Tyr-D-Trp-Leu-)” returned a ring closure, yield after HPLC (15-membered ring, DIEA (active ester), 0.91 mM, 4 steps) of 27.1%. “cyclo(-Arg-D-Glu((2)-MeOPhp)-Tyr-D-Trp-Leu-)” returned a ring closure, yield after HPLC (15-membered ring, DIEA (active ester), 1.07 mM, 4 steps) of 9.2%. Regarding cyclo(-Arg-D-Trp-Tyr-D-Trp-Leu-), for the setting “15-membered ring, HONB/DCC preactivation, DIEA, 1.01 mM, 5 steps”, the ring closure, yield after HPLC is 11.5%.

Regarding cyclo(-Arg-D-Glu(Bzlp)-Tyr-D-Trp-Leu-), where the note is “15-membered ring, DIEA (active ester), 1.09 mM, 4 steps”, the ring closure, yield after HPLC stood at 21.6%. `Cc1ccc(S(=O)(=O)NC(=N)NCCC[C@H]2NC(=O)[C@H](c3ccccc3)NC(=O)[C@H](Cc3c[nH]c4ccccc34)NC(=O)[C@@H](C)NC(=O)[C@H](Cc3ccccc3)NC2=O)cc1` [cyclo(-Phg-D-Arg(Tos)-Phe-D-Ala-Trp-)] returned a ring closure, yield after HPLC (from H-dAla-Trp-Phg-dArg(Tos)-Phe-OH, 15-membered ring, PyBOP/DIEA, 25.0 °C, 2 steps) of 28.3%. On to “cyclo(-Arg-D-Glu(NHCH2 CH2 Ph)-Tyr-D-Trp-Trp-)”, for which the ring closure, yield after HPLC (15-membered ring, ONB active ester/DIEA, 1.33 mM, 5 steps) amounted to 14.8%.

“cyclo(-Arg-D-Glu(NHCH2 Nap(1))-Tyr-D-Trp-Leu-)” registered a ring closure, yield after HPLC under setting [1] of 56.7%. “cyclo(-Thg(2)-D-Arg(Tos)-Phe-D-Ala-Trp-)” came in with a ring closure, yield after HPLC (15-membered ring, PyBOP/DIEA, 25.0 °C) of 13.8%. The compound cyclo(-Tyr-D-Trp-Leu-Arg-Trp-Pro-) showed a ring closure, yield after HPLC (18-membered ring, DIEA, 1.0 mM, 5 steps) of 15.3%. The compound “cyclo(-Arg-D-Lys(SO2 Nap(1))-Tyr-D-Trp-Leu-)” displayed a ring closure, yield after HPLC under setting [2] of 30%.

“cyclo(-Arg-D-Glu((4)-MeOPhp)-Tyr-D-Trp-Leu-)” gave a ring closure, yield after HPLC (15-membered ring, DIEA (active ester), 1.07 mM, 5 steps) of 24.4%. Regarding `Cc1ccc(S(=O)(=O)NC(=N)NCCC[C@H]2NC(=O)[C@H](c3ccccc3)NC(=O)[C@H](Cc3c[nH]c4ccccc34)NC(=O)[C@@H](CO)NC(=O)[C@H](Cc3ccccc3)NC2=O)cc1` [cyclo(-Phg-D-Arg(Tos)-Phe-D-Ser-Trp-)], the ring closure, yield after HPLC (from H-dSer-Trp-Phg-dArg(Tos)-Phe-OH, 15-membered ring, PyBOP/DIEA, 25.0 °C, 2 steps) came to 15.7%.

cyclo(-Arg-D-Lys-Tyr-D-Trp-Leu-) came in with a ring closure, yield after HPLC (15-membered ring, HONB/DCC preactivation, DIEA, 0.94 mM, 5 steps) of 11.7%.

Under “from H-dLeu-Trp-Phe-dArg(Tos)-Phe-OH, 15-membered ring, PyBOP/DIEA, 25.0 °C, 2 steps”, `Cc1ccc(S(=O)(=O)NC(=N)NCCC[C@H]2NC(=O)[C@H](Cc3ccccc3)NC(=O)[C@H](Cc3c[nH]c4ccccc34)NC(=O)[C@@H](CC(C)C)NC(=O)[C@H](Cc3ccccc3)NC2=O)cc1` [cyclo(-Phe-D-Arg(Tos)-Phe-D-Leu-Trp-)] displayed a ring closure, yield after HPLC of 29.4%.

Regarding “cyclo(-Lys(isopropyl)-D-Glu(NHCH2 CH2 Ph)-Tyr-D-Lys(Nic)-Leu-)”, the ring closure, yield after HPLC (15-membered ring, ONB active ester/DIEA, 1.19 mM, 5 steps) stood at 44.3%. In the case of cyclo(-Arg-D-Lys(Ac)-Tyr-D-Trp-Leu-), the ring closure, yield after HPLC (15-membered ring, ONB active ester/DIEA, 1.36 mM, 5 steps) stood at 23.9%.

Where the note is “from H-Trp-pFPhe-dArg(Tos)-Phe-dAla-OH, 15-membered ring, PyBOP/DIEA, 25.0 °C, 2 steps”, `Cc1ccc(S(=O)(=O)NC(=N)NCCC[C@H]2NC(=O)[C@H](Cc3ccc(F)cc3)NC(=O)[C@H](Cc3c[nH]c4ccccc34)NC(=O)[C@@H](C)NC(=O)[C@H](Cc3ccccc3)NC2=O)cc1` [cyclo(-pFPhe-D-Arg(Tos)-Phe-D-Ala-Trp-)] gave a ring closure, yield after HPLC of 58.8%. cyclo(-Lys-D-Glu(Php)-Tyr-D-Trp-Leu-) came in with a ring closure, yield after HPLC (15-membered ring, DIEA (active ester), 1.11 mM, 5 steps) of 23.5%. Regarding “cyclo(-Arg-Lys(SO2 Nap(2))-Tyr-D-Trp-Leu-)”, under setting [2], the ring closure, yield after HPLC was 48.3%. In the case of “cyclo(-Arg-D-Glu((2)-Pyp)-Tyr-D-Trp-Leu-)”, the ring closure, yield after HPLC (15-membered ring, DIEA (active ester), 1.1 mM, 4 steps) was found to be 12.1%.

“cyclo(-Arg-D-Glu(NHCH2 CH2 Ph)-Lys(COPh)-D-Trp-Leu-)” registered a ring closure, yield after HPLC (15-membered ring, DIEA (active ester), 3.63 mM, 5 steps) of 57.6%. For the compound “cyclo(-Arg-D-Glu(NHCHPh2)-Tyr-D-Trp-Leu-)”, for the setting “15-membered ring, DIEA (active ester), 0.86 mM, 4 steps”, the ring closure, yield after HPLC turned out to be 26.1%. In turn, `COc1cc(C)c(S(=O)(=O)NC(=N)NCCC[C@H]2NC(=O)[C@H](Cc3ccccc3)NC(=O)[C@H](Cc3c[nH]c4ccccc34)NC(=O)[C@@H](C)NC(=O)[C@H](Cc3ccccc3)NC2=O)c(C)c1C` [cyclo(-Phe-D-Arg(Mtr)-Phe-D-Ala-Trp-)] registered a ring closure, yield after HPLC (from H-dAla-Trp-Phe-dArg(Mtr)-Phe-OH, 15-membered ring, PyBOP/DIEA, 1.0 mM, 25.0 °C, 2 steps) of 5.8%. “cyclo(-Arg-D-Lys(COCH2 CH2 CH2 Ph)-Tyr-D-Trp-Leu-)” registered a ring closure, yield after HPLC (15-membered ring, DIEA (active ester), 3.18 mM, 5 steps) of 28.7%.

In turn, “cyclo(-Arg-D-Glu(NHCH2 CH2 Ph)-Tyr-D-Trp-Leu-)” registered a ring closure, yield after HPLC (15-membered ring, DIEA (active ester), 0.9 mM, 4 steps) of 30.9%.

Compound “cyclo (-Arg-D-Lys (COCH2 CH2 CH2 CH2 CH2 Ph)-Tyr-D-Trp-Leu-)” had a ring closure, yield after HPLC (15-membered ring, DIEA (active ester), 3.12 mM, 5 steps) of 26.8%. `Cc1ccc(S(=O)(=O)NC(=N)NCCC[C@H]2NC(=O)[C@H](Cc3ccccc3)NC(=O)[C@H](Cc3c[nH]c4ccccc34)NC(=O)[C@@H](C)NC(=O)[C@H](Cc3ccc4ccccc4c3)NC2=O)cc1` [cyclo(-Phe-D-Arg(Tos)-Nal(2)-D-Ala-Trp-)] gave a ring closure, yield after HPLC (from H-Trp-Phe-dArg(Tos)-Nal(2)-dAla-OH, 15-membered ring, PyBOP/DIEA, 25.0 °C, 2 steps) of 15.5%. For the setting “15-membered ring, DIEA (active ester), 3.28 mM, 5 steps”, “cyclo(-D-Tyr-Arg-D-Trp-Leu-D-Lys(SO2 Nap(1))-)” yielded a ring closure, yield after HPLC of 54.3%. For the compound “cyclo(-Arg-D-Lys(COCH2 Ph)-Tyr-D-Trp-Leu-)”, the ring closure, yield after HPLC (15-membered ring, ONB active ester/DIEA, 0.89 mM, 5 steps) turned out to be 30.6%. “cyclo(-Leu-D-Arg-Lys(SO2 Nap(1)-D-Tyr-Trp-)”: for the setting “15-membered ring, DIEA, 1.1 mM, 5 steps”, the ring closure, yield after HPLC was 21.1%. On to cyclo(-Arg-Glu(Php)-Tyr-D-Trp-Leu-), for which, under “15-membered ring, DIEA (active ester), 1.1 mM, 5 steps”, the ring closure, yield after HPLC came out at 22.7%. Where the note is “15-membered ring, HONB/DCC preactivation, DIEA, 2.47 mM, 5 steps”, “cyclo(-Arg-D-Lys(SO2 Nap(2))-Trp-D-Trp-Leu-)” yielded a ring closure, yield after HPLC of 27.1%. On to `Cc1ccc(S(=O)(=O)NC(=N)NCCC[C@H]2NC(=O)[C@H](Cc3ccccc3)NC(=O)[C@H](Cc3c[nH]c4ccccc34)NC(=O)[C@@H](C)NC(=O)[C@H](Cc3ccc(F)cc3)NC2=O)cc1` [cyclo(-Phe-D-Arg(Tos)-pFPhe-D-Ala-Trp-)], for which, under “from H-Trp-Phe-dArg(Tos)-pFPhe-dAla-OH, 15-membered ring, PyBOP/DIEA, 25.0 °C, 2 steps”, the ring closure, yield after HPLC was found to be 65.6%. Turning to `Cc1ccc(S(=O)(=O)NC(=N)NCCC[C@H]2NC(=O)[C@H](Cc3ccccc3)NC(=O)[C@H](Cc3c[nH]c4ccccc34)NC(=O)[C@@H](C)NC(=O)[C@H](Cc3ccc(Cl)cc3)NC2=O)cc1` [cyclo(-Phe-D-Arg(Tos)-pClPhe-D-Ala-Trp-)], the ring closure, yield after HPLC (from H-Trp-Phe-dArg(Tos)-pClPhe-dAla-OH, 15-membered ring, PyBOP/DIEA, 25.0 °C, 2 steps) is 50.5%. For the compound “cyclo(-D-Leu-Lys(SO2 Nap(1))-D-Tyr-Arg-D-Trp-)”, the ring closure, yield after HPLC (15-membered ring, ONB active ester/DIEA, 3.3 mM, 5 steps) came to 52.2%. Where the note is “from H-Trp-pClPhe-dArg(Tos)-Phe-dAla-OH, 15-membered ring, PyBOP/DIEA, 25.0 °C, 2 steps”, `Cc1ccc(S(=O)(=O)NC(=N)NCCC[C@H]2NC(=O)[C@H](Cc3ccc(Cl)cc3)NC(=O)[C@H](Cc3c[nH]c4ccccc34)NC(=O)[C@@H](C)NC(=O)[C@H](Cc3ccccc3)NC2=O)cc1` [cyclo(-pClPhe-D-Arg(Tos)-Phe-D-Ala-Trp-)] displayed a ring closure, yield after HPLC of 7.5%.

Compound `Cc1ccc(S(=O)(=O)NC(=N)NCCC[C@H]2NC(=O)[C@H](c3ccccc3)NC(=O)[C@H](Cc3ccccc3)NC(=O)[C@@H](C)NC(=O)[C@H](Cc3ccccc3)NC2=O)cc1` [cyclo(-Phg-D-Arg(Tos)-Phe-D-Ala-Phe-)] returned a ring closure, yield after HPLC (from H-Phe-Phg-dArg(Tos)-Phe-dAla-OH, 15-membered ring, PyBOP/DIEA, 25.0 °C, 2 steps) of 13.1%.

Where the note is “from H-Trp-Phe-dArg(Tos)-Phe-dAla-OH, 15-membered ring, PyBOP/DIEA, 25.0 °C, 2 steps”, `Cc1ccc(S(=O)(=O)NC(=N)NCCC[C@H]2NC(=O)[C@H](Cc3ccccc3)NC(=O)[C@H](Cc3c[nH]c4ccccc34)NC(=O)[C@@H](C)NC(=O)[C@H](Cc3ccccc3)NC2=O)cc1` [cyclo(-Phe-D-Arg(Tos)-Phe-D-Ala-Trp-)] showed a ring closure, yield after HPLC of 10.8%.
